According to patent US10662194B2, “Substituted 6-anilino-9-heterocyclylpurine derivatives for inhibition of plant stress” (UNIVERZITA PALACKEHO V OLOMOUCI, priority 2014, dated 2020):

Key:
AHK3 = molecular target: T1, AHK3 (Arabidopsis thaliana, UniProt Q9C5U1); assay: Escherichia coli cytokinin receptor activation assay (AHK3); format: cell-based; settings: 10^−7 M-5×10^−5 M, compared to trans-zeatin, FIG. 1
T1 construct: expressed in transfected cells; host or cells: Escherichia coli strain KMI001
T1 sequence (Q9C5U1 1-1036): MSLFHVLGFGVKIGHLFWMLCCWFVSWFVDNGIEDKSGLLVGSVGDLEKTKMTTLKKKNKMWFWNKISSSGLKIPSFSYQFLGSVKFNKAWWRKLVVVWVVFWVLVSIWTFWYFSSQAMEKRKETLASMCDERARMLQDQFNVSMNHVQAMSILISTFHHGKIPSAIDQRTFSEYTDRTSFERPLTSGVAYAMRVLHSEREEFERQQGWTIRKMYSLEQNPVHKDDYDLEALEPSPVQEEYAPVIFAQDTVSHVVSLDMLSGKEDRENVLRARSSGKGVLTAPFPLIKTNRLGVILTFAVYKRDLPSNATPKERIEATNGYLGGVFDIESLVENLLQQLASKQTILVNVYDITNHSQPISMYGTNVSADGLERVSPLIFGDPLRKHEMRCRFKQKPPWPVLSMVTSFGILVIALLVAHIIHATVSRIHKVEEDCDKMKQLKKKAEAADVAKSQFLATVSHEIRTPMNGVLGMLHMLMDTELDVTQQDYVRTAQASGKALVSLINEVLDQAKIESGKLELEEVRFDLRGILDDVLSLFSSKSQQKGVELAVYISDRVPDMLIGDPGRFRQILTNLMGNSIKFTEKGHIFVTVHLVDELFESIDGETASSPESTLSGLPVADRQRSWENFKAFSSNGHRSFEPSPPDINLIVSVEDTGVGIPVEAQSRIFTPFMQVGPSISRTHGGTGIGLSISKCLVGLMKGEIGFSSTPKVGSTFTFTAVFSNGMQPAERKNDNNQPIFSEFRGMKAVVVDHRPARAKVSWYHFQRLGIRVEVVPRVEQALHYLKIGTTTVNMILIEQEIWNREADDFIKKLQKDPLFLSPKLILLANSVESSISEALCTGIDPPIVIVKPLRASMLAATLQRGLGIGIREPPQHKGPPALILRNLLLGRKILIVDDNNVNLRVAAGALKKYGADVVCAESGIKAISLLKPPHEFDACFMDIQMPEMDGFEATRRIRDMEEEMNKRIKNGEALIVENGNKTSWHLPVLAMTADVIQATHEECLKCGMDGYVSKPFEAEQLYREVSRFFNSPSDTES
Method: Escherichia coli strains KMI001 harbouring the plasmid pIN-III-AHK4 or pSTV28-AHK3 were grown overnight at 25° C. in M9 media enriched with 0.1% casamino acids to OD600˜1. The preculture was diluted 1:600 in 1 ml M9 medium containing 0.1% casamino acids and 1 μL stock solution of either the tested compound (10^−7 M-5×10^−5 M) or solvent control (DMSO, ethanol, methanol) were added. The cultures were further grown at 25° C. in microtiter plate, 200 μL per well. […] The cultures were centrifuged and 50 μL aliquots of the supernatant were transferred to microtiter plate containing 2 μL 50 mM 4-methyl umbelliferyl galactoside which was subsequently incubated for 1 h at 37° C. The reaction was stopped by adding 100 μL 0.2 M Na2CO3. Fluorescence was measured using a Fluoroscan Ascent (Labsystems, Finland) at the excitation and emission wavelengths of 365 and 460 nm, respectively. The OD600 of remaining culture was determined and β-galactosidase activity was calculated as nmol 4-methylumbelliferone×OD600^−1×h^−1.

ARR5:GUS reporter gene = assay: Induction of cytokinin reporter ARR5:GUS in transgenic Arabidopsis plants; format: in vivo; settings: 0.01-10 μM, 17 h, FIG. 2
Method: Cytokinins induce in Arabidopsis transcription of gene ARR5, a member of A-type response regulator family classified as cytokinin primary response genes being expressed down-stream of sensing by cytokinin receptors. We cultivated transgenic Arabidopsis plants harbouring PARR5::GUS reporter (D'Agostino et al. Plant Physiol. 124: 1706-1717, 2000) in MS medium containing cytokinin BAP, CKX inhibitor INCYDE and novel compounds 12 and 91 in concentrations 0.01, 0.1, 1, 5, 10 μM; DMSO (0.1%) was tested as solvent control. Seeds were surface-sterilized in 70% ethanol and then placed into wells of 6-well microtiter plate (TPP, Switzerland) containing 3 mL of MS medium in each well. After sowing plates were pretreated in dark at 4° C. to synchronize the germination of the seeds. […] Quantitative estimation of the level of ARR5:GUS gene induction was done according to method published by Romanov et al. (Romanov et al. FEBS Letters 515: 39-43, 2002). After extraction of proteins the GUS activity was determined using incubation with fluorogenic substrate MUG (4-methylumbelliferyl glucuronid; 1 h, 37° C.) and then fluorescence 365 nm and 460 nm (excitation and emission wavelengths) was recorded, as described in detail by Spíchal et al. (Spíchal et al. Plant and Cell Physiology 45: 1299-1305, 2004).

COc1cccc(Nc2nc(Cl)nc3c2ncn3C2CCCCO2)c1 (centres unmarked) [compound 12, 2-chloro-6-(3-methoxyanilino)-9-(tetrahydropyran-2-yl)purine]
ability to activate cytokinin receptor AHK3 (AHK3): very low ability to activate | induction of ARR5:GUS expression (ARR5:GUS reporter gene): dose-dependent induction of ARR5:GUS expression
